Source: BindingDB's records for patent US8969325 (Abbvie, 2015)

Biological target: Transient receptor potential cation channel subfamily V member 1 (Homo sapiens, UniProt Q8NER1)
Experiment: Activation Assay
Description: Expression plasmids encoding the hTRPV1 cDNA were transfected into HEK293 cells using Lipofectamine. Forty-eight hours after transfection, the neomycin-resistant cells were selected with growth medium containing 800 ug/mL Geneticin (Life Technologies, formerly Gibco BRL). Surviving individual colonies were isolated and screened for TRPV1 activity.

Sequence of Transient receptor potential cation channel subfamily V member 1 (Q8NER1 whole entry): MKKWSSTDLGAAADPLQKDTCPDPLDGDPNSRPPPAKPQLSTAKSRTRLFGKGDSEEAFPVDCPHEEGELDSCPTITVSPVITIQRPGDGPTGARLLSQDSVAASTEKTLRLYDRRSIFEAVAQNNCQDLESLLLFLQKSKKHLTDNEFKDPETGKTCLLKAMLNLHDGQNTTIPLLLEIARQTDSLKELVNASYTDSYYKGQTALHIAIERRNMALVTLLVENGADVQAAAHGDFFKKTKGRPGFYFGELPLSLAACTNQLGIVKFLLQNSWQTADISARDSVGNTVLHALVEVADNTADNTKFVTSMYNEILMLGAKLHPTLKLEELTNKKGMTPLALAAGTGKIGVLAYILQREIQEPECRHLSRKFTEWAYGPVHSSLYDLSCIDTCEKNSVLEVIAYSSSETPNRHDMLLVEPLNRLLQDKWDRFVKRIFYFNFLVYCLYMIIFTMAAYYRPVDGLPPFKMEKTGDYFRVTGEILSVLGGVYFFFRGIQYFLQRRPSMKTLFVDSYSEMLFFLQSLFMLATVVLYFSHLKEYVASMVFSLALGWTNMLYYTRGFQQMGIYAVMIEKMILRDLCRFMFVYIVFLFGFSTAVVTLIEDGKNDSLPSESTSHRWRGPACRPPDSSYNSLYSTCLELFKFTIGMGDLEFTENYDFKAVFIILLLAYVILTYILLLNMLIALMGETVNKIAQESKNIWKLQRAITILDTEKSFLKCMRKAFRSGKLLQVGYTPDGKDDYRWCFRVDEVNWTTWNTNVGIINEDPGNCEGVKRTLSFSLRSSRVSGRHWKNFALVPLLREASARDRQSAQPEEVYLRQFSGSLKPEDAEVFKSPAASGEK

- IC50: 21 nM
Compound: CN1C(=O)NCc2c(NC(=O)N[C@@H]3CC(C)(C(F)F)Oc4cc(Cl)ccc43)cccc21 (stereo partly specified) [US8969325, 136]
